Blank lines part the entries; values can stand above or below the compound they belong to.
Tests used:
CCK-2R = system: CCK-2R; parameters: method as in PMID 24325469; settings: cited from earlier work
[1] = Stability of the radiotracer in NaCl 0.9%, HEPES and EDTA (radio-TLC / RP-HPLC); format: physicochemical
Method: (§1) HPLC analyses on indium-111-labelled IP-001 were performed on an S1125 HPLC pump system, and the column used was an Acclaim 120 C18, 3 × 150 mm, 3 µm 120 Å pore size; flow: 0.6 mL/min; gradient: minutes 0–2 A: 70% B: 30%; minutes 2–12 B: 30% -> 95%; and minutes 12–15 B: 95% -> 30%, where A: H2O (0.1% TFA) and B: MeCN. Detection was carried out with an S3245 UV–Vis and an S3700 gamma detector system.
(§2) TLC plates used for the assessment of the preparative reactions were silica gel 60 […] (0.2 mm, Merck) with the eluents mentioned for the specific product in the following paragraphs. Column chromatography was carried out with silica gel 60 (0.063–0.100 mm, Merck), and elution was performed using the eluent described for the specific preparations. The radioactive incorporation and stability of [^111In]In-IP-001 were assessed on ITLC-SG plates, developed in a 1 M ammonium acetate/MeOH 1:1 v/v solution, by using a flatbed-imaging scanner (Cyclone, Perkin Elmer).
(§3) The stability of [^111In]In-IP-001 solutions (0.5 mL, 10 nmol, 18 MBq) was assessed by means of radio-TLC or RP-HPLC at various temperatures (4, 24, and 37 °C) and in the presence of different media up to 120 h after preparation. The studies were performed by incubating the radiotracer with (i) a 0.9% NaCl solution at a 9:1 ratio, (ii) a 0.1 M HEPES solution at a 9:1 ratio, (iii) a 0.1 M EDTA solution at 9:1 and 1:1 ratios, (iv) human serum (HS) at a 9:1 ratio, and (v) HB at a 1:1 ratio. After TLC analysis, samples incubated with HB were centrifuged at 3000 rpm for 10 min to precipitate blood cells, and 200 μL of a MeCN/H2O/TFA 50/45/5 v/v/v solution was added to 400 μL of the supernatant. After another centrifugation under the same conditions, the supernatant was discarded and the residual radioactivity due to the proteins bound fraction was measured in a dose calibrator. Lipophilicity calculation were performed in octanol–water with the shaking flask method, as already described elsewhere. All experiments were performed in triplicate.

A549 xenograft tumors [2] = assay: Blocking experiment with 50-fold molar excess of unlabeled IP-001, ex vivo biodistribution; format: in vivo, BALB/c nude mice
Method: (§4) Homozygous female BALB/c nude J:NU (JAX stock number 007850) mice were purchased from Jackson Laboratories (Bar Harbor, ME, USA). Mice were 4 weeks old at arrival, and they were hosted in an IVC system (Smart Flow AHU, Tecniplast) with autoclaved rodent bedding hosting 3–4 mice per cage. Mice were fed with autoclaved rodent food and water ad libitum. The inoculation of A549 tumor cell line was performed by the subcutaneous injection of 5 × 10^6 cells/mouse in 100 uL of […] medium (RPMI added of 10% FBS, 1% penicillin-streptomycin, 1% glutamine) into the right shoulder. […] Inoculation was carried out at 5 weeks of age after one week in the facility for acclimatization purposes. Mice were monitored every 2–3 days by measuring weight and tumor dimensions with an electronic caliper. For this purpose, two perpendicular dimensions were noted and volumes of the tumors were calculated with the formula 0.5 × L × W^2, where L is the measurement of the longest axis and W is the measurement of the axis perpendicular to L, in millimeters.
Tumors were allowed to grow for about five weeks until they reached 0.5–1.0 cm of size in one dimension (i.e., around 50–250 mm^3 volume), and then mice were divided in two groups. The experimental group (n = 5) was intravenously injected (retro-orbital venous sinus) with 150 μL of a [^111]In-IP-001 solution (2.06 nmol, 7.4MBq), while the blocked group (n = 5) was injected with 150 μL of a [^111]In-IP-001 solution added to a 50-fold molar excess of cold ligand. All injections were performed with the animals under isoflurane anesthesia (1–3%), using 30G ultra-fine insulin syringes. […]
(§5) For biodistribution studies, the injections were performed as described above, and 3 mice for both groups were sacrificed at 4 and 24 h post injection using 2% isoflurane. Main organs and tissues were removed, weighed, and counted together with blood samples, muscle, and urine by a γ-counter system (Cobra II from Packard, Canberra, ME, USA). […]

A549 cells = assay: [111In]In-IP-001 cellular uptake; format: cell-based, human
Method: A549 epithelial lung cancer cells were seeded in 6-well plates (20,000/cm^2) and allowed to adhere overnight. The following day, the medium was removed and radiotracer uptake was studied by incubating 2 × 10^5 cells at 37 °C in 2 mL of culture medium added to 30 µL (ca. 2 MBq, 1.35 μg, 1 nmol) of [^111In]In-IP-001. Uptake was monitored at 2, 4, 8, and 24 h. At these time points, the medium was removed and cells were washed twice with 2 mL of ice-cold PBS. Finally, cells were detached with 2 mL of a 0.25% trypsin/EDTA solution at 37 °C and centrifuged to separate the supernatant from the cells pellet. The radioactivity associated with the pellets was measured in a γ-spectrometer and corrected for decay. All experiments were performed in triplicate.

A549 xenograft tumors [3] = assay: Ex vivo biodistribution in A549 tumor-bearing mice; parameters: species or system BALB/c nude mice
Method: as §4
Tumors were allowed to grow for about five weeks until they reached 0.5–1.0 cm of size in one dimension (i.e., around 50–250 mm^3 volume), and then mice were divided in two groups. The experimental group (n = 5) was intravenously injected (retro-orbital venous sinus) with 150 μL of a [^111]In-IP-001 solution (2.06 nmol, 7.4MBq), while the blocked group (n = 5) was injected with 150 μL of a [^111]In-IP-001 solution added to a 50-fold molar excess of cold ligand. All injections were performed with the animals under isoflurane anesthesia (1–3%), using 30G ultra-fine insulin syringes. Real-time, live, and fast dynamic screening studies were performed right after injection and on selected time points post-injection, on a dedicated desktop, mouse-sized, planar scintigraphic system (γ-eye^TM by BIOEMTECH, Athens, Greece). The system supports fusion with a digital mouse photograph for anatomical co-registration. The main detector is based on two position-sensitive photomultiplier tubes coupled to a CsI(Na) pixelated scintillator and a medium-energy lead collimator with parallel hexagonal holes that supports a range of SPECT isotopes. The system’s field of view is 5 × 10 cm^2, with a spatial resolution of ~2 mm. […] This allowed for a fast test, right after injection, to check whether the injection was successful, and on later time points to quickly evaluate the bio-kinetics of the tracer. Tomographic SPECT/CT imaging was performed with y-CUBE^TM and x-CUBE^TM (Molecubes, Belgium), respectively, at the same selected time points post-injection. The SPECT system provides a spatial resolution of 0.6 mm for mouse imaging and of 1.5 mm for rat imaging. The CT system performs a spiral scan, it can provide images with 100 um resolution, and images were acquired with 50 kVp. Mouse imaging was performed by keeping the mice anaesthetized under isoflurane and under a constant temperature of 37 °C. SPECT scans were acquired with a 45 min duration, and each SPECT scan was followed by a high-resolution CT scan for co-registration purposes. The SPECT data were reconstructed through a maximum-likelihood expectation-maximization (MLEM) algorithm, with a 500 μm voxel size and […]. CT data were reconstructed through an iterative image space reconstruction algorithm (ISRA) algorithm with a 100 μm voxel size. Tomographic images are presented through maximum intensity projection (MIP) view). The experimental group was imaged at 2, 4, 8, and 24 h post-injection with both imaging systems, while the blocked group was imaged at 4 and 24 h.
as §5

[4] = Stability of the radiotracer in human blood; format: in vitro ADME; settings: for Stability (%), amount of intact radiotracer: Human blood
Method: as §1, §2, §3

[5] = Stability of the radiotracer in human serum; format: in vitro ADME; settings: for Stability (%), amount of intact radiotracer: Human serum
Method: as §1, §2, §3

[6] = Lipophilicity, octanol-water shaking flask method; format: physicochemical
Method: as §3

Compound: CC(C)(C)C(=O)CN1C(=O)[C@H](NC(=O)Nc2cccc(C(=O)O)c2)CN(C2CCCCC2)c2ccccc21 [Z-360, Nastorazepide]
selectivity relative to CCK-1R (CCK-2R; CCK-2R versus CCK-1R): 672 | Kd (CCK-2R; CCK-2R): 0.47 nM

Stability (%), amount of intact radiotracer ([1]; EDTA (0.1 M), 4 h): 98 ± 1% | Stability (%), amount of intact radiotracer ([1]; EDTA (0.1 M), 8 h): 98 ± 1% | Stability (%), amount of intact radiotracer ([1]; EDTA (0.1 M), 24 h): 96 ± 2% | Stability (%), amount of intact radiotracer ([1]; EDTA (0.1 M), 72 h): 96 ± 3% | Stability (%), amount of intact radiotracer ([1]; HEPES (0.1 M), 4 h): 98 ± 2% | Stability (%), amount of intact radiotracer ([1]; HEPES (0.1 M), 8 h): 97 ± 3% | Stability (%), amount of intact radiotracer ([1]; HEPES (0.1 M), 24 h): 97 ± 3% | Stability (%), amount of intact radiotracer ([1]; HEPES (0.1 M), 72 h): 96 ± 1% | Stability (%), amount of intact radiotracer ([1]; NaCl 0.9%, 4 h): 98 ± 2% | Stability (%), amount of intact radiotracer ([1]; NaCl 0.9%, 8 h): 98 ± 2% | Stability (%), amount of intact radiotracer ([1]; NaCl 0.9%, 24 h): 97 ± 2% | Stability (%), amount of intact radiotracer ([1]; NaCl 0.9%, 72 h): 97 ± 2% | difference in radioactivity in organs and tumors between normal and blocked groups (A549 xenograft tumors [2]; 4 h post injection): no significant differences | tumor uptake, blocked group (A549 xenograft tumors [2]; 24 h post injection, with 50-fold molar excess of unlabeled IP-001, n = 3): 0.84 ± 0.33 % IA/g | lower uptake in the tumor tissue in the blocking setting (A549 xenograft tumors [2]; blocked versus experimental group, 24 h): 45% | spleen uptake (A549 xenograft tumors [3]; 4 h post injection (abstract)): 3.88 ± 0.36 % ID/cc | tumor uptake (A549 xenograft tumors [3]; 4 h post injection, i.v., n = 3): 2.36 ± 0.26 % IA/g | blood uptake (A549 xenograft tumors [3]; 4 h post injection, n = 3): 4.21 ± 0.40 % IA/g | intestines uptake (A549 xenograft tumors [3]; 4 h post injection, n = 3): 2.39 ± 0.28 % IA/g | kidneys uptake (A549 xenograft tumors [3]; 4 h post injection, n = 3): 6.99 ± 0.97 % IA/g | liver uptake (A549 xenograft tumors [3]; 4 h post injection, n = 3): 8.25 ± 2.21 % IA/g | lungs uptake (A549 xenograft tumors [3]; 4 h post injection, n = 3): 2.82 ± 0.21 % IA/g | pancreas uptake (A549 xenograft tumors [3]; 4 h post injection, n = 3): 2.03 ± 0.16 % IA/g | spleen uptake (A549 xenograft tumors [3]; 4 h post injection, n = 3): 3.88± 0.36 % IA/g | intestines uptake (A549 xenograft tumors [3]; 24 h post injection): 0.55 ± 0.29 % IA/g | kidneys uptake (A549 xenograft tumors [3]; 24 h post injection): 3.11 ± 0.52 % IA/g | liver uptake (A549 xenograft tumors [3]; 24 h post injection): 3.55 ± 1.17 % IA/g | pancreas uptake (A549 xenograft tumors [3]; 24 h post injection): 0.26 ± 0.04 % IA/g | tumor to blood (T/B) ratio (A549 xenograft tumors [3]; 24 h post injection): 10.19 | tumor to kidneys ratio (A549 xenograft tumors [3]; 24 h post injection): 0.48 | tumor to liver ratio (A549 xenograft tumors [3]; 24 h post injection): 0.47 | tumor to muscle (T/M) ratio (A549 xenograft tumors [3]; 24 h post injection): 15.72 | tumor/intestines ratio (A549 xenograft tumors [3]; 24 h post injection): 2.76 | tumor/lungs ratio (A549 xenograft tumors [3]; 24 h post injection): 2.02 | tumor/pancreas ratio (A549 xenograft tumors [3]; 24 h post injection): 5.85 | tumor uptake (A549 xenograft tumors [3]; 24 h post injection, n = 3): 1.52 ± 0.71 % IA/g | accumulated radiotracer still retained in tumor tissue (A549 xenograft tumors [3]; 24 h post-injection relative to 4 h): 65% | decrease of the signal over 24 h (A549 xenograft tumors [3]; intestines, lungs, and pancreas, from 4 h to 24 h): more than 73% | Stability (%), amount of intact radiotracer ([4]; 4 h): 98 ± 2% | Stability (%), amount of intact radiotracer ([4]; 8 h): 95 ± 1% | Stability (%), amount of intact radiotracer ([4]; 24 h): 95 ± 2% | Stability (%), amount of intact radiotracer ([4]; 72 h): 93 ± 1% | Stability (%), amount of intact radiotracer ([4]; 120 h): 93 ± 2% | percentage of intact compound ([4]; human blood (HB), after 48 h): higher than 95% | Stability (%), amount of intact radiotracer ([5]; 4 h): 98 ± 2% | Stability (%), amount of intact radiotracer ([5]; 8 h): 96 ± 3% | Stability (%), amount of intact radiotracer ([5]; 24 h): 95 ± 3% | Stability (%), amount of intact radiotracer ([5]; 72 h): 94 ± 2% | Stability (%), amount of intact radiotracer ([5]; 120 h): 93 ± 1% | percentage of intact compound ([5]; human serum, after 48 h): higher than 95% | partition coefficient (LogP) [6]: 0.45
Compound: CC(C)(C)C(=O)CN1C(=O)C(NC(=O)Nc2cccc(C(=O)NCCCCCCNC(=O)CCC(=O)NCCCOCCOCCOCCCNC(=O)CN3CCN(CC(=O)[O-])CCN(CC(=O)[O-])CCN(CC(=O)[O-])CC3)c2)CN(C2CCCCC2)c2ccccc21.[111In+3] (stereo not shown) [[^111In]In-IP-001]
maximal accumulation (percent of the added radioactivity per million cells) (A549 cells; 2 MBq, 4 h of incubation): around 5% | incubation time of maximal accumulation (A549 cells; incubation up to 24 h): 4 h
